Experiments:
Type in all cases: cell-based, human
fibronectin and α-SMA [1] = assay: Western blotting of fibrosis-related proteins in TGF-β1-induced MRC-5 cells; conditions: MRC-5, TGF-β1 1 ng/ml, 10 μM, FIG. 4b
Description: Since the overexpression of extracellular matrix components such as fibronectin and α-SMA serves as an indicator of fibrotic changes in tissues, MRC-5 cells induced to undergo fibrosis by TGF-β1 were treated with each compound at different concentrations to compare the expression levels of fibronectin and α-SMA.
(§1) Specifically, to extract fibronectin and α-SMA proteins, the cells were washed once with cold PBS and then RIPA buffer (150 mM NaCl, 0.5% Triton X-100, 50 mM Tris-HCl, pH 7.4, 25 mM NaF, 20 mM EGTA), which was added with a protease inhibitor cocktail, was added thereto to lyse the cells. Then, the proteins were quantified using a BCA protein assay kit. All protein samples were subjected to electrophoresis at 10 μg on 8% to 10% PAGE gels and then transferred to 0.2 μm PVDF membranes (EMD Millipore, MA, USA). The membranes to which the protein was transferred were blocked with 5% BSA or 5% skim milk for 1 hour, and then primary antibodies were added thereto and incubated overnight at 4° C. The following day, the membranes were washed three times with PBST, and then HRP-conjugated secondary antibodies were added and reacted at room temperature for 1 hour. The PVDF membranes prepared through such procedures were smeared with ECL (Luminata™ Crescendo, EMD Millipore) and exposed to a fluorescence reader to confirm the level of protein expression.
The specific experimental methods are the same as in Example 2, and sulforaphane was treated at a concentration of 20 μM, Compound 1 at 5 μM, 10 μM, and 20 μM, and Compound 2 at 2.5 μM, 5 μM, and 10 μM, respectively.
(§2) To compare the changes in fibrosis-related protein expression by treating normal MRC-5 and diseased DHLF-IPF cell lines induced with pulmonary fibrosis by TGF-β1 with SFN and the two candidate compounds, Western blotting was performed.
(§3) The specific experimental methods are the same as in Example 2. TGF-β1 was treated at 1 ng/ml to induce fibrosis, and sulforaphane and the two compounds each were treated at a concentration of 10 μM.

fibronectin and α-SMA [2] = assay: Western blotting of fibrosis-related proteins in TGF-β1-induced DHLF-IPF cells; conditions: TGF-β1 1 ng/ml, 10 μM, FIG. 4b
Description: as §1, §2, §3

FN, COL1A1, and α-SMA [3] = assay: qRT-PCR of fibrosis-related genes in TGF-β1-induced MRC-5 cells; conditions: MRC-5, 10 μM pretreatment 1 hour, TGF-β1 1 ng/ml 48 hours, FIG. 4c/4d
Description: (§4) MRC-5 and DHLF-IPF cells were each cultured in growth medium, and the medium was removed. […] The medium was then removed, and the cells were washed once with PBS. Intracellular total RNA was extracted from the cultured cells using TRIzol reagent (TaKaRa Bio Inc., Japan) for gene expression analysis. 1 mL of TRIzol reagent was added to lyse the cells and denature the tissue. The lysate was transferred to each 1.5 mL tube, and 200 μL of chloroform was added thereto, followed by vortexing for 20 seconds to ensure complete mixing. After incubating at room temperature for 15 minutes, the mixture was centrifuged at 14,000 rpm for 20 minutes to obtain the supernatant. After adding an equal volume of isopropyl alcohol, the tubes were inverted and incubated at room temperature for 10 minutes. The sample was centrifuged at 14,000 rpm for 15 minutes to obtain an RNA pellet, which was washed by centrifugation with 70% ethanol for use on RNA at 14,000 rpm for 5 minutes, and dried for 5 minutes. The dried RNA sample was added with 20 μL of distilled water treated with 0.1% diethyl pyrocarbonate (DEPC) to dissolve the pallet and the resultant was used as a sample for cDNA synthesis. 1 μL of the same was used to measure the RNA concentration and purity at O.D. 260/280 nm using a Nanodrop.
(§5) Single-stranded cDNA synthesis was performed by mixing 1 μg of the extracted total RNA with 1 μL of oligo-d(T) primer ([…]) and 10 mM dNTP (TaKaRa Bio Inc., Japan), reacting at 65° C. for 5 minutes, followed by rapid cooling. To this template, 4 μL of 5×RT buffer, 0.5 μL of RNA inhibitor, and 100 units of RTase (TaKaRa Bio Inc., Japan) were added, and the total volume was adjusted to 20 μL using DEPC-treated distilled water. […]
(§6) Each gene expression level was measured using real-time PCR. […] The specificity of the amplified product was confirmed through melting curve analysis, and the target genes were quantified and compared using GAPDH as a control gene.

FN, COL1A1, and α-SMA [4] = assay: qRT-PCR of fibrosis-related genes in TGF-β1-induced DHLF-IPF cells; conditions: 10 μM pretreatment 1 hour, TGF-β1 1 ng/ml 48 hours, FIG. 4c/4d
Description: as §4, §5, §6

C[S+]([O-])CCCCN=C=S (stereo not shown) [sulforaphane, reference compound]
reduced: expression levels of fibronectin and α-SMA protein (fibronectin and α-SMA [1]) | expression levels of fibronectin and α-SMA protein (fibronectin and α-SMA [2]) | gene expression levels of FN, COL1A1, and α-SMA (FN, COL1A1, and α-SMA [3]) | gene expression levels of FN, COL1A1, and α-SMA (FN, COL1A1, and α-SMA [4])

— patent publication US20250313528A1, “NOVEL COMPOUND AND PHARMACEUTICAL COMPOSITION FOR PREVENTING OR TREATING PULMONARY FIBROSIS COMPRISING SAME AS ACTIVE INGREDIENT” (GIL MEDICAL CENTER, priority 2022, published 2025)
